Assay results reported in ChEMBL document CHEMBL2150967, “Novel Quinolinones as Activators of AMP Activated Protein Kinase: Patent Highlight” (ACS Med Chem Lett, 2012).

Key:
[1] = biological target: AMP-activated protein kinase, AMPK (Homo sapiens) (UniProt P54646+O43741+P54619+Q9UGJ0+Q9Y478+Q13131+Q9UGI9); test: (§1) Activation of recombinant human AMPK by FRET assay
[2] = biological target: AMP-activated protein kinase, AMPK; test: as §1

SMILES | pEC200 [1] | pEC50 [2]
Cc1nc(-c2c(O)c3cc(-c4ccc(N(C)C)cc4)c(Cl)cc3[nH]c2=O)c(C)s1 | < 5 | < 5.5
Cc1nc(-c2c(O)c3cc(-c4ccc(N5CCCCC5)cc4)c(Cl)cc3[nH]c2=O)cs1 | < 5 | < 5.5

Other lines, results leading:

pEC200 [1] | pEC50 [2] | SMILES
< 5 | < 5.5 | COc1cccc(-c2ccc(-c3cc4c(O)c(-n5cccn5)c(=O)[nH]c4cc3Cl)cc2)c1
< 5 | < 5.5 | Cc1cc(-c2c(O)c3cc(-c4ccc(N(C)C)cc4)c(Cl)cc3[nH]c2=O)no1
< 5 | < 5.5 | Cc1ccn(-c2c(O)c3cc(-c4ccc(N5CCCC5)cc4)c(Cl)cc3[nH]c2=O)n1
